In ChEMBL document CHEMBL1201862, “PubChem BioAssay data set” (2004):
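Following 48 hours of exposure in 96-well plates, responses at five concentrations were used to interpolate endpoints linearly. The concentration for 50% growth inhibition is given as GI50.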 Activity calls are given as the source filed them. Rule as the data show it: active = GI50 up to about 1.1 µM and inactive = higher.

What was measured:
Assay in all cases: NCI tumour cell line growth inhibition, 48 h
786-0 = tested on: 786-0
A549 = tested on: A549
CAKI-1 = tested on: CAKI-1
CCRF-CEM = tested on: CCRF-CEM
HCC 2998 = tested on: HCC 2998
IGROV-1 = tested on: IGROV-1
KM12 = tested on: KM12
M14 = tested on: M14
OVCAR-3 = tested on: OVCAR-3
OVCAR-4 = tested on: OVCAR-4
SK-OV-3 = tested on: SK-OV-3
SW-620 = tested on: SW-620
UACC-257 = tested on: UACC-257
UACC-62 = tested on: UACC-62
HOP-92 = tested on: HOP-92
SR = tested on: SR
MDA-MB-435 = tested on: MDA-MB-435
NCI/ADR-RES = tested on: NCI/ADR-RES

Measured: GI50

O=C1CC(c2c[nH]c3ccccc23)C(=O)N1c1ccccc1 (configuration not stated)
inactive: 786-0 > 100 µM | A549 > 100 µM | CAKI-1 > 100 µM | CCRF-CEM > 100 µM | HCC 2998 > 100 µM | IGROV-1 > 100 µM | KM12 > 100 µM | M14 > 100 µM | OVCAR-3 > 100 µM | OVCAR-4 > 100 µM | SK-OV-3 > 100 µM | SW-620 > 100 µM | UACC-257 > 100 µM | UACC-62 > 100 µM

CCOC(=O)CCCO
inactive: 786-0 > 100 µM | A549 > 100 µM | CCRF-CEM > 100 µM | HCC 2998 > 100 µM | HOP-92 > 100 µM | IGROV-1 > 100 µM | KM12 > 100 µM | M14 > 100 µM | OVCAR-3 > 100 µM | SK-OV-3 > 100 µM | SR > 100 µM | SW-620 > 100 µM | UACC-257 > 100 µM | UACC-62 > 100 µM

O=C(c1nc2ccccc2nc1O)C(O)c1ccco1 (configuration not stated)
inactive: 786-0 > 100 µM | A549 > 100 µM | CCRF-CEM > 100 µM | HCC 2998 > 100 µM | HOP-92 > 100 µM | IGROV-1 > 100 µM | KM12 76.4 µM | M14 > 100 µM | OVCAR-3 > 100 µM | OVCAR-4 > 100 µM | SK-OV-3 > 100 µM | SW-620 > 100 µM | UACC-257 > 100 µM | UACC-62 61.5 µM

N#CCCN(c1ccc(-c2nnc(NC(=O)CNNC(=O)CC(=O)Nc3ccccc3)s2)cc1)S(=O)(=O)c1ccccc1
inactive: 786-0 > 100 µM | A549 88.1 µM | CAKI-1 78 µM | CCRF-CEM 90.8 µM | HCC 2998 > 100 µM | HOP-92 79.6 µM | IGROV-1 > 100 µM | KM12 > 100 µM | OVCAR-3 52.6 µM | OVCAR-4 53.2 µM | SK-OV-3 > 100 µM | SW-620 > 100 µM | UACC-257 > 100 µM | UACC-62 50.8 µM

Cn1cnc([N+](=O)[O-])c1Sc1nnc(-c2ccc(Cl)cc2)n1C
inactive: 786-0 > 10 µM | A549 48.9 µM | CAKI-1 15.9 µM | CCRF-CEM 3.69 µM | HCC 2998 17.9 µM | HOP-92 12.1 µM | IGROV-1 16.7 µM | KM12 20.1 µM | M14 13.6 µM | OVCAR-3 13.9 µM | OVCAR-4 13.7 µM | SK-OV-3 51.2 µM | SR 7.41 µM | SW-620 11.3 µM | UACC-257 12.7 µM | UACC-62 15.5 µM

O=C(NO)C(=O)Nc1cc(Cl)ccc1Cl
inactive: 786-0 > 100 µM | A549 > 100 µM | CAKI-1 23.2 µM | CCRF-CEM 51.1 µM | HCC 2998 78 µM | HOP-92 69.5 µM | IGROV-1 20.1 µM | KM12 > 100 µM | M14 > 100 µM | OVCAR-3 90.6 µM | OVCAR-4 > 100 µM | SK-OV-3 > 100 µM | SR 93.5 µM | SW-620 > 100 µM | UACC-257 > 100 µM | UACC-62 > 100 µM

CC1=CCP(C(F)(F)F)P(C(F)(F)F)C1 (configuration not stated)
inactive: 786-0 > 100 µM | A549 > 100 µM | CAKI-1 > 100 µM | CCRF-CEM > 100 µM | HCC 2998 > 100 µM | HOP-92 > 100 µM | IGROV-1 > 100 µM | KM12 > 100 µM | M14 > 100 µM | OVCAR-3 > 100 µM | OVCAR-4 > 100 µM | SK-OV-3 > 100 µM | SR > 100 µM | SW-620 > 100 µM | UACC-257 > 100 µM | UACC-62 > 100 µM

COc1ccc2c3c([nH]c2c1CC=C(C)C)C(=O)C=C(C)C3=O
inactive: 786-0 > 25 µM | A549 > 25 µM | CAKI-1 > 25 µM | CCRF-CEM 8.36 µM | HCC 2998 > 25 µM | HOP-92 > 25 µM | IGROV-1 > 25 µM | KM12 > 25 µM | M14 > 25 µM | OVCAR-3 > 25 µM | OVCAR-4 20.4 µM | SK-OV-3 > 25 µM | SR 24.5 µM | SW-620 > 25 µM | UACC-257 > 25 µM | UACC-62 > 25 µM

C#CCN(CC#C)C(=O)C(=O)c1c[nH]c2ccc(OC)cc12
inactive: 786-0 16.6 µM | A549 25.7 µM | CCRF-CEM 19.7 µM | HCC 2998 16.9 µM | HOP-92 14.2 µM | IGROV-1 33 µM | KM12 14 µM | M14 18.5 µM | MDA-MB-435 18.5 µM | NCI/ADR-RES 21.8 µM | OVCAR-4 > 10 µM | SK-OV-3 17.8 µM | SR 11.1 µM | SW-620 20.3 µM | UACC-257 17.5 µM | UACC-62 19.5 µM

O=[N+]([O-])c1ccc(C(O)/C(=N/O)c2nc3ccc(Cl)cc3nc2O)cc1 (configuration not stated)
inactive: 786-0 > 100 µM | A549 > 100 µM | CAKI-1 > 100 µM | CCRF-CEM > 100 µM | HCC 2998 > 100 µM | IGROV-1 > 100 µM | KM12 > 100 µM | M14 > 100 µM | OVCAR-4 > 100 µM | SK-OV-3 > 100 µM | SR > 100 µM | SW-620 > 100 µM | UACC-257 > 100 µM | UACC-62 > 100 µM

CCCCCN(CCCCC)CC(C)(C)C(O)c1ccc(OC)c2ccccc12 (configuration not stated)
inactive: 786-0 12.4 µM | A549 9.2 µM | CAKI-1 11.6 µM | CCRF-CEM 27.9 µM | HCC 2998 3.52 µM | HOP-92 2.53 µM | IGROV-1 2.59 µM | KM12 8.81 µM | M14 1.4 µM | MDA-MB-435 10.8 µM | NCI/ADR-RES 7.05 µM | OVCAR-3 8.34 µM | OVCAR-4 11.1 µM | SR 2.07 µM | SW-620 10 µM | UACC-257 13.1 µM | UACC-62 12.5 µM

COc1cc([C@@H]2c3cc4c(cc3[C@@H](OC(=O)c3ccc(N)cc3)C3COC(=O)[C@@H]32)OCO4)cc(OC)c1O (some centres not stated)
inactive: 786-0 7.08 µM | A549 5.02 µM | CAKI-1 8.47 µM | CCRF-CEM 6.18 µM | HCC 2998 12.2 µM | HOP-92 3.77 µM | IGROV-1 2.8 µM | KM12 11.9 µM | M14 16.8 µM | OVCAR-3 12.9 µM | OVCAR-4 45.4 µM | SK-OV-3 3.2 µM | SW-620 5.71 µM | UACC-257 9.14 µM | UACC-62 4.91 µM

Cc1ccc(NC(=O)CCC(=O)C2Cc3ccccc3C2=O)cc1C (configuration not stated)
inactive: 786-0 > 100 µM | A549 > 100 µM | CAKI-1 > 100 µM | CCRF-CEM > 100 µM | HCC 2998 > 100 µM | HOP-92 > 100 µM | IGROV-1 > 100 µM | KM12 > 100 µM | M14 > 100 µM | OVCAR-3 > 100 µM | OVCAR-4 > 100 µM | SK-OV-3 > 100 µM | SR > 100 µM | SW-620 > 100 µM | UACC-257 > 100 µM | UACC-62 > 100 µM

COc1ccc(CN2C(=O)C(Cc3cc(OC)c(OC)c(C)c3OC)N(C(=O)OC(C)C)C(=O)/C2=C/c2cc(OC)c(OC)c(C)c2OC)cc1 (configuration not stated)
inactive: 786-0 > 100 µM | A549 > 100 µM | CAKI-1 > 100 µM | CCRF-CEM 59.6 µM | HCC 2998 > 100 µM | HOP-92 > 100 µM | IGROV-1 > 100 µM | KM12 > 100 µM | M14 > 100 µM | OVCAR-3 16.1 µM | OVCAR-4 > 100 µM | SK-OV-3 > 100 µM | SR 15.2 µM | SW-620 > 100 µM | UACC-257 48 µM | UACC-62 > 100 µM

C=CCN1C2Cc3cc(OC)c(OC)cc3C1Cc1cc(OC)c(OC)cc12
inactive: 786-0 > 100 µM | A549 > 100 µM | CAKI-1 > 100 µM | CCRF-CEM > 100 µM | HCC 2998 > 100 µM | KM12 > 100 µM | M14 > 100 µM | OVCAR-3 > 100 µM | OVCAR-4 > 100 µM | SW-620 > 100 µM | UACC-257 > 100 µM

Cc1nc(-n2nc(-c3ccccc3)cc2-c2ccccc2)sc1C(=O)/C=C/c1ccc(/C=C/C(=O)c2sc(-n3nc(-c4ccccc4)cc3-c3ccccc3)nc2C)cc1
inactive: 786-0 18.6 µM | A549 39 µM | CAKI-1 22.2 µM | CCRF-CEM 30.6 µM | HCC 2998 20.1 µM | IGROV-1 15.2 µM | KM12 18.8 µM | M14 20 µM | OVCAR-3 20.8 µM | OVCAR-4 35.2 µM | SK-OV-3 > 100 µM | SR 27.2 µM | SW-620 34.8 µM | UACC-257 21 µM | UACC-62 > 10 µM

O=C1NC2(O)c3ccccc3C(=O)C2(O)N1c1ccccc1 (configuration not stated)
inactive: 786-0 > 100 µM | A549 > 100 µM | CAKI-1 > 100 µM | CCRF-CEM > 100 µM | HCC 2998 > 100 µM | HOP-92 > 100 µM | IGROV-1 > 100 µM | KM12 > 100 µM | M14 > 100 µM | OVCAR-3 > 100 µM | OVCAR-4 > 100 µM | SK-OV-3 > 100 µM | SR > 100 µM | SW-620 > 100 µM | UACC-257 > 100 µM | UACC-62 > 100 µM

COc1ccc(COC2CC(OC)OC(C)C2OC(=O)c2ccccc2)cc1 (configuration not stated)
inactive: 786-0 74.1 µM | A549 33 µM | CAKI-1 36.5 µM | CCRF-CEM 30.3 µM | HCC 2998 43.1 µM | HOP-92 50 µM | IGROV-1 90.4 µM | KM12 34.8 µM | M14 34.6 µM | OVCAR-3 31.9 µM | OVCAR-4 32.8 µM | SK-OV-3 > 100 µM | SR 19 µM | SW-620 46.1 µM | UACC-257 40.1 µM | UACC-62 32.9 µM
